These are literature values, as cited in US20250241356A1, “ORAL COMPOSITION COMPRISING RECEPTOR MODULATOR” (NICOVENTURES TRADING LIMITED, priority 2022, published 2025).

For data set [1], the target named is TRPM8 (Mus musculus, UniProt Q8R4D5).

Read-outs that look alike come from different tables or passages of the source.

Chain of TRPM8 (Q8R4D5 whole entry): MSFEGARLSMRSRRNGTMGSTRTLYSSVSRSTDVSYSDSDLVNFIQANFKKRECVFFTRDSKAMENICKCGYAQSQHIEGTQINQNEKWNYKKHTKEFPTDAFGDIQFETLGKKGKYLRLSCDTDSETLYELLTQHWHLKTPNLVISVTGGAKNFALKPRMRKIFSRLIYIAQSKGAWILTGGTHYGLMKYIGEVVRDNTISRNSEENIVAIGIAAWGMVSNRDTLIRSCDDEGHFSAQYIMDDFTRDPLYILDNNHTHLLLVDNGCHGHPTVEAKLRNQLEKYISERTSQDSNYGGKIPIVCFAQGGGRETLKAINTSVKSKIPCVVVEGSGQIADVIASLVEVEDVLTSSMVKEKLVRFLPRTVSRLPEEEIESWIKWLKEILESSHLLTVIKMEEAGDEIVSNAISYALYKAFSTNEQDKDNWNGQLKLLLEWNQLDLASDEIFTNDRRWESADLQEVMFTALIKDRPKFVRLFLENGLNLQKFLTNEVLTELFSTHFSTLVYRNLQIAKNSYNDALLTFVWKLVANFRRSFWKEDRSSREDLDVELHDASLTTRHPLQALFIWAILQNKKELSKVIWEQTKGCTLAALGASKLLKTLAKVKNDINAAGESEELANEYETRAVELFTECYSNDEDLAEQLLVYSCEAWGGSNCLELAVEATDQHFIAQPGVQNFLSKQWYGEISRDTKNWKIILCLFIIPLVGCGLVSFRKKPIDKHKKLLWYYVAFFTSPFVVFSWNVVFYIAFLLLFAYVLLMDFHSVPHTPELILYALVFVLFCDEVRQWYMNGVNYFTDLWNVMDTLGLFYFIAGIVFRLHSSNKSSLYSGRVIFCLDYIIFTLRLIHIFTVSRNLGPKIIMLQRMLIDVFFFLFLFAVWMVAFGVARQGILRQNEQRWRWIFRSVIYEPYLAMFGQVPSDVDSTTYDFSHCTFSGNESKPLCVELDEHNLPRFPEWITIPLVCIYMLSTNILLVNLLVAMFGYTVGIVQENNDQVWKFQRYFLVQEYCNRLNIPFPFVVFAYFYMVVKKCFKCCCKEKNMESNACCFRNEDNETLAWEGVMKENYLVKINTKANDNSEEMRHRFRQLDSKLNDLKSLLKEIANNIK

For the compound `O=C1NC(c2cccc([N+](=O)[O-])c2)=CCN1c1ccccc1O` [icilin, 1-(2-hydroxyphenyl)-4-(3-nitrophenyl)-3,6-dihydropyrimidin-2-one], the responses to icilin result in data set [1] (extracellular [H+] increased from pH 7.3 to approximately pH 6) is “abolished”; in data set [1] (standard physiological solutions of pH 7.3), “evokes [Ca2+] dependent responses”.

In the case of `CC(/C=C/C=C(C)/C=C/C(=O)O)=C\C=C\C=C(C)\C=C\C=C(C)\C=C\C(=O)O` (stereo in doubt) [norbixin, (2E,4E,6E,8E,10E,12E,14E,16E,18E)-4,8,13,17-tetramethylicosa-2,4,6,8,10,12,14,16,18-nonaenedioic acid], the solubility in water entry is listed as “water-soluble”.

As for `COC(=O)/C=C/C(C)=C\C=C\C(C)=C\C=C\C=C(C)\C=C\C=C(C)\C=C\C(=O)O` [bixin, (2E,4E,6E,8E,10E,12E,14E,16Z,18E)-20-methoxy-4,8,13,17-tetramethyl-20-oxoicosa-2,4,6,8,10,12,14,16,18-nonaenoic acid], the “solubility in fats and alcohols” value is “soluble in fats and alcohols”; the solubility in water result is given as “insoluble in water”. For the same compound, the “chemical stability when isolated” value (converts via isomerization into trans-bixin (β-bixin)) was “chemically unstable when isolated”.
